Measured values as given in US20180161366A1, “METHODS OF OBTAINING MONONUCLEAR BLOOD CELLS AND USES THEREOF” (Biokine Therapeutics Ltd., priority 2015, published 2018).
Where “and” joins values, the source holds several entries; their conditions need not be identical. Identical values can stand only once. Like-named read-outs stand apart in the source and are kept apart here. Non-standard residues stand in square brackets, D forms with d. *: point of attachment. Benzoyl(4-F) = O=C(c1ccc(F)cc1)*; Cit = NC(=O)NCCC[C@H](N)C(=O)O

What was measured:
[1] = system: mice; conditions: single injection; cited from earlier work
[2] = system: healthy subjects; type: in vivo; conditions: for Mean CD34+ count (HSPC): four hours post first administration, baseline 5.8/μL, placebo 8; for Mean count of CD34+ HSPC: four hours post second administration, placebo 9
Procedure: (§1) White blood cell count—Blood count assays were performed using Beckman-Coulter analyzers (GENS,750,000).
(§2) Flow cytometry—Cells (100 μl) were stained for 30 minutes in 0.1 ml FACS buffer with fluorescence antibodies directed against Human CD3, CD19, CD56, CD4, CD8, CCR7, CD83, lin-cocktail, CD11c, CD45RA, CD25, /Foxp3+, CD16, CD34, CD38 CD105 or matched isotype controls and mouse CD3, and B220 all from eBioscience San Diego, Calif. 92121 USA. Following staining the cells were washed with FACS buffer and analyzed by flow cytometry (5 μl per sample) using the FACS Caliber Flow Cytometer (BD Biosciences). Data was analyzed using software from CellQuest (version 3.3; BD Biosciences). Cells were first gated according to the forward scatter and side scatter parameters to exclude dead cells and the number and percent of each cell population (e.g. HSPCs, T cells, B cells, NK cells, NKT cells and DCs) was analyzed.
The first part of the study was a randomized, double-blind, placebo-controlled dose escalation. […] After obtaining informed consent, BL-8040 was administered subcutaneously (SC) once daily on 2 consecutive days at a dose of 0.5, 0.75 or 1 mg/kg.

[3] = system: healthy subjects; assay: Open label single injection of BL-8040 followed by leukapheresis: composition of collected graft and kinetics of WBC, ImDC and T cells; type: in vivo, human
Procedure: (§3) FIG. 1 is a graph illustrating kinetic analysis of the effect of BL-8040 administration on mobilization of white blood cells (WBC) to the peripheral blood. The figure presents a time course of total WBC in the peripheral blood of subjects in response to a single SC administration of 1 mg/kg BL-8040 as determined by flow cytometry.
as §3, with “FIG. 2” for “FIG. 1”, “of immature dendritic” for “of white blood”, “cells (ImDC)” for “cells (WBC)”, “of ImDC” for “of total WBC”
as §3, with “FIG. 3” for “FIG. 1”, “of CD3+ T” for “of white blood”, “cells” for “cells (WBC)”, “of CD3+ T” for “of total WBC”
Leukapheresis—The leukapheresis procedure was commenced approximately 4 hours (±1 hour) post BL-8040 injection. Eighteen (18) Liter apheresis was collected at a Bone Marrow Transplant unit using the Spectra Optia® Apheresis System.
as §1, §2
The second part of the study was an open label test. 8 healthy subjects received a single injection of BL-8040 (1 mg/kg) and 3-4 hours later were subjected to a standard leukapheresis (18 L) procedure. The composition of the collected graft was tested for the number of WBCs per kg, number of CD34+ HSPC per kg and number and type of T cells, B cells, NK cells and dendritic cells (DC) per kg.

[4] = system: C57BL mice; assay: Number of CD3+ T cells and B220+ B cells in spleen and peripheral lymph nodes of mice (FIG. 4); type: in vivo, mouse; conditions: 5 mg/kg
Procedure: FIG. 4 are graphs presenting the number of CD3+ T cells and B220+ B cells in spleen and peripheral lymph nodes (PLN) of C57BL mice prior (denoted as control) and following administration of 5 mg/kg BL-8040, as determined by flow cytometry.
as §2

[5] = system: myeloid leukemia, hematopoietic tumors and non-small cell lung cancer; conditions: cited from earlier work
[6] = biological target: CXCR4 receptor (Homo sapiens, UniProt P61073); conditions: cited from earlier work
Sequence of CXCR4 receptor (P61073 whole entry): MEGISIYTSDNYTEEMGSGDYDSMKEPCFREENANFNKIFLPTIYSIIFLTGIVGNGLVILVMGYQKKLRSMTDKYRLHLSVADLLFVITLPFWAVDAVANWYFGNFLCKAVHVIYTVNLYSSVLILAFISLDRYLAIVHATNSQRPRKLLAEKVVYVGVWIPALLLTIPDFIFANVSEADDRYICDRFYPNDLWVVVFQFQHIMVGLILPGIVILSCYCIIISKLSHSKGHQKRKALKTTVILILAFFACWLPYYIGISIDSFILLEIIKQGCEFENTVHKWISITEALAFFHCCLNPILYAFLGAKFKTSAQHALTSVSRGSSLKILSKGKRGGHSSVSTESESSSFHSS

[7] = system: C57BL/6 mice; assay: BL8040-induced mobilization of T cell subsets in naive mice or mice bearing pancreatic or melanoma cancer; type: in vivo; conditions: 400 μg/mouse SC
Procedure: Six-to 8-week-old female or male C57BL/6 were purchased from Harlan laboratories. Mice were maintained and all animal experiments were conducted according to the protocols approved by the institutional animal care of the Hebrew university.
Female C57BL/6 mice were inoculated subcutaneously at the right flank with 1× 10^6 B16F10 cells in 0.1 mL PBS. When tumors reached 90 to 150 mm^2 in size (after two weeks), mice were treated with BL-8040, according to the below regimen.
1.5×10^6 Livmet cells/10 μl PBS and 10 μl Matrigel (BD Biosciences) were injected into the pancreas of male C57BL/6 mice. Mice were treated with BL8040, 3 weeks after the injection.
BL8040 (400 μg/mouse dissolved in phosphate-buffered saline) was administered once by subcutaneous injection and 2 h later the blood was collected into tube with heparin.
Fluorescent-activated cell sorting analysis was performed on whole blood (day 0) and expanded cells (day 10).
Whole blood was treated with red blood cell lysis solution (0 155 M NH4Cl, 0.01 M KHCO3, 0.01 mmol/l EDTA, pH 7.4) in order to lyse the erythrocytes. Isolated cells were washed with PBS, re-suspended with 0.1 ml of PBS and stained with fluorescent antibodies directed against specific surface markers.
Cells were incubated with mobs: CD8-PE, CD4-APC, CD3-FITC, CD25-PE-Cy7, CD69-PerCP, CD44-PE-Cy7, CD137-PE-Cy7, CD279-FITC, CD62L-FITC and CD223-FITC (eBioscience).

[8] = peripheral blood, 0.5-1 mg/kg SC

## 4F-benzoyl-Arg-Arg-Nal-Cys-Tyr-Cit-Lys-DLys-Pro-Tyr-Arg-Cit-Cys-Arg-NH2 ({Benzoyl(4-F)}-RR[Nal]CY[Cit]K[dK]PYR[Cit]CR-NH2; not fully specified; printed as 4F-benzoyl-Arg-Arg-Nal-Cys-Tyr-Cit-Lys-DLys-Pro-Tyr-Arg-Cit-Cys-Arg-NH2; also: cyclised, bridge not given here) [BL-8040]
[1]
  mobilization of long term repopulating stem cells: mobilized long term repopulating stem cells sufficient for transplantation
[2]; 4 hr post BL-8040 administration, baseline 6.3
  mean WBC count: 2.97e+10 L⁻¹
[2]; 0.5 mg/kg
  Mean CD34+ count (HSPC): 37 cells/μL
  Mean count of CD34+ HSPC: 38 cells/μL
[2]; 0.75 mg/kg
  Mean CD34+ count (HSPC): 31 cells/μL
  Mean count of CD34+ HSPC: 46 cells/μL
[2]; 1 mg/kg
  Mean CD34+ count (HSPC): 35 cells/μL
  Mean count of CD34+ HSPC: 58 cells/μL
[2]; healthy subjects, SC once daily on 2 consecutive days, all doses tested (0.5-1 mg/kg)
  safety and tolerability: safe and well tolerated
[2]; healthy subjects, SC, 0.5-1 mg/kg
  primary treatment related adverse effects: mild to moderate transient injection site and systemic reactions
[2]; [8]
  mobilization of MSC and HPC colony forming cells: rapid mobilization
  mobilization of T, B and NK cells: substantial mobilization
[2]; post dosing
  duration of CXCR4 receptor occupancy and pharmacodynamic effect: ≥ 24 h
[3]; 3.5-8 hours following 1 mg/kg
  B cells (CD19+), % of graft: 13.1%
  B cells (CD19+), median: 2.03 × 10^8/Kg and 2.03 (0.32-2.6) × 10^8/Kg
  Central memory CD4 T cells (CD3+/CD4+ CD45RA−/CCR7+), % of CD4+ cells: 37.99%
  Central memory CD8 T cells (CD3+/CD8+ CD45RA−/CCR7+), % of CD8 cells: 33.1%
  Cytotoxic T cells (CD3+CD8+), % of graft: 22.5%
  Cytotoxic T cells (CD3+CD8+), median: 2.89 × 10^8/Kg and 2.89 (1.7-4.9) × 10^8/Kg
  Effector CD4 T cells (CD3+/CD4+ CD45RA+/CCR7−), % of CD4+ cells: 6.24%
  Effector CD8 T cells (CD3+/CD8+ CD45RA+/CCR7−), % of CD8 cells: 1.09%
  Effector memory CD4 T cells (CD3+/CD4+ CD45RA−/CCR7−), % of CD4+ cells: 21.19%
  Effector memory CD8 T cells (CD3+/CD8+ CD45RA−/CCR7−), % of CD8 cells: 1.94%
  HSPC (CD34+), % of graft: 0.78%
  HSPC (CD34+), median: 11.89 × 10^6/Kg and 11.89 (5.1-15.0) × 10^6/Kg
  Immature DCs (lin-CD11c+CD83−), % of graft: 0.95%
  Immature DCs (lin-CD11c+CD83−), median: 1.16e+07 kg⁻¹
  NK cells (CD3−CD56+), % of graft: 4.76%
  NK cells (CD3−CD56+), median: 0.53 × 10^8/Kg and 0.53 (0.15-1.55) × 10^8/Kg
  NKT cells (CD3+CD56+), % of graft: 1.2%
  NKT cells (CD3+CD56+), median: 9.8e+06 kg⁻¹
  Naïve CD4 T cells (CD3+/CD4+ CD45RA+/CCR7+), % of CD4+ cells: 34.61%
  Naïve CD8 T cells (CD3+/CD8+ CD45RA+/CCR7+), % of CD8 cells: 63.89%
  Regulatory T cells (CD4+CD25+Foxp3+), % of graft: 1.28%
  Regulatory T cells (CD4+CD25+Foxp3+), median: 1.61e+07 kg⁻¹
  T cells (CD3+), % of graft: 48.08%
  T cells (CD3+), median: 7.32 × 10^8/Kg and 7.32 (4.0-8.5) × 10^8/Kg
  T helper cells (CD3+CD4+), % of graft: 21.7%
  T helper cells (CD3+CD4+), median: 3.3 × 10^8/Kg and 3.3 (1.44-3.9) × 10^8/Kg
[3]; 24 hours following administration, FIG. 3
  number of T cells in the periphery at 24 hours: remains high
[3]; following administration of BL-8040
  time at which number of T cells in the periphery started to decline: 48 h
[3]; ratio of medians
  Fold Difference (BL-8040/AMD3100), B cells CD19: 2.00
  Fold Difference (BL-8040/AMD3100), Cytotoxic T cells CD3+CD8+: 2.22
  Fold Difference (BL-8040/AMD3100), HSPC CD34+: 4.10
  Fold Difference (BL-8040/AMD3100), NK cells CD3−CD56+: 1.77
  Fold Difference (BL-8040/AMD3100), T cells CD3+: 1.59
  Fold Difference (BL-8040/AMD3100), T helper cells CD3+CD4+: 1.03
  Fold Difference (BL-8040/G-CSF), Cytotoxic T cells CD3+CD8+: 7.23
  Fold Difference (BL-8040/G-CSF), HSPC CD34+: 2.83
  Fold Difference (BL-8040/G-CSF), NK cells CD3−CD56+: 2.65
  Fold Difference (BL-8040/G-CSF), T cells CD3+: 5.63
  Fold Difference (BL-8040/G-CSF), T helper cells CD3+CD4+: 3
[3]; single 1 mg/kg SC, FIG. 1
  increase in the total number of WBC: 5-7 fold
[3]; single administration, FIGS. 2-3
  time within which mobilization of DCs and T cells occurs: 3 to 4 h
[4]
  source of mobilized T cells (spleen and peripheral lymph nodes counts): T cells are mobilized from the lymph node into the blood
[5]
  toxicity against tumors: toxic against several tumors
[6]
  binding to the CXCR4 receptor: high affinity and long receptor occupancy
[7]; cancerous mice vs naive mice, FIG. 6B
  CD69+ CD25+ activated T cells in collected cells: more CD69+ CD25+ activated T cells
[7]; tumor bearing mice vs non injected or naive mice, blood 2 h later, FIG. 6A
  mobilization of CD4 and CD8 cells: increased mobilization of both CD4 and CD8 cells
